The record followed here is patent publication US20260035384A1, “COMPOUND CONTAINING CYCLOHEXYL” (CHIA TAI TIANQING PHARMACEUTICAL GROUP CO., LTD., priority 2022, published 2026).

Positions count from the first letter of the chain named. Read-outs that look alike come from different tables or passages of the source. Where only a bound is given, the exact number is not on record here.

A short description of data set [1]: In vitro stability in liver microsome. Particulars: human liver microsome 0.5 mg/mL, NADPH, 37° C. In kind it is in vitro ADME. The protocol: Liver microsome incubation samples (species: human, monkey, rat, and mouse) were prepared by mixing a PBS buffer (pH=7.4), a liver microsome solution (0.5 mg/mL), a test compound, and an NADPH+MgCl2 solution and incubated at 37° C. and 300 rpm for 1 h. Zero-hour samples were prepared by mixing a PBS buffer (pH=7.4), a liver microsome solution (0.5 mg/mL), and a test compound. An acetonitrile solution containing an internal standard was added to the samples, and supernatants were prepared by protein precipitation, diluted, and then assayed by LC/MS/MS.
For orientation: Liver microsomes are a subcellular fraction often used to study metabolism.

The next data set relates to LNCaP cells. Nature of the data set: Assay on inhibitory activity for LNCaP cell proliferation (CCK-8). Type of data set: cell-based. The following applies: 168 h incubation. Summed up: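 Cells seeded at 1×10^5 cells/mL in phenol red-free 1640 with 2% CSS-FBS, treated at final 10000 nM-0.61 nM in duplicate. After 168 h incubation, viability read with CCK-8.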
For another data set, the target named is T1, AR in LNCaP cells (Homo sapiens, UniProt P10275, T878A).
T1 construct: Assay on Degradation Activity for AR in LNCaP Cells; endogenous in cells; host or cells: LNCaP cells
T1 sequence (P10275 1-920 T878A): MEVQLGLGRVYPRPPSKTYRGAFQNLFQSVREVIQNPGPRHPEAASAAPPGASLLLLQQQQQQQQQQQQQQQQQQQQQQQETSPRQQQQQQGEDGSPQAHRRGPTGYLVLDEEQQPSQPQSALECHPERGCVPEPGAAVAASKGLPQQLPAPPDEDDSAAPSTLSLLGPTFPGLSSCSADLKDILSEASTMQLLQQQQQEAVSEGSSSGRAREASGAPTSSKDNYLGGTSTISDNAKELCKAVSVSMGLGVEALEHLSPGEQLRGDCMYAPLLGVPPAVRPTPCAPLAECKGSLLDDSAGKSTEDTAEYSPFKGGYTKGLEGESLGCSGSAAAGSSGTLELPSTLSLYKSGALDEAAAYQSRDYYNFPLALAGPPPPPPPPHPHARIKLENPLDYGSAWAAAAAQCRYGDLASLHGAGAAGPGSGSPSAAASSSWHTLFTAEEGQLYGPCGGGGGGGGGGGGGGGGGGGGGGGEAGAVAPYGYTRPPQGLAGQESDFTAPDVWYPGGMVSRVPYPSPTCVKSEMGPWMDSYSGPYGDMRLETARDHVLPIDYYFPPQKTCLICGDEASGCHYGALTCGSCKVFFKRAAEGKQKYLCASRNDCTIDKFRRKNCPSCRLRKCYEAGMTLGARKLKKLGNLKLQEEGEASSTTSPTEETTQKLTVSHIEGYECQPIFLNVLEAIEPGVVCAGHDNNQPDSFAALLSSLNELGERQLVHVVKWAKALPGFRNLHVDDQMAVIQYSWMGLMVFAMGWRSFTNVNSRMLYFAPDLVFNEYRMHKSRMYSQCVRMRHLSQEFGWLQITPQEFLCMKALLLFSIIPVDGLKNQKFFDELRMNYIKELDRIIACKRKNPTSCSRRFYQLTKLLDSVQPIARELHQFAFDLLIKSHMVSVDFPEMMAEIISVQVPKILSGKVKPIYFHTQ
Nature of the data set: Assay on degradation activity for AR in LNCaP cells (HTRF human androgen receptor detection kit). In kind it is cell-based. Particulars: 24 h incubation; for DC50: HTRF; for Dmax: maximum degradation rate. An outline of the steps:
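LNCaP cells seeded in 2% CSS-FBS phenol red-free 1640 medium overnight, then treated in duplicate with 500 nM–0.488 nM compound for 24 h. AR in lysates quantified by HTRF (Eu cryptate/d2 antibodies, 2 h, 25 °C, 665/620 nm); DC50 and Dmax from four-parameter fits.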
In general terms: In TR-FRET formats the signal depends on donor and acceptor labels being close together.

Another data set is described as follows: Mouse pharmacokinetics. Type of data set: in vivo, ICR mice. The following applies: ICR, mouse, plasma; for AUC: read-out: AUC; for bioavailability: Mouse i.g. 10 mpk vs i.v. 1 mpk; for Cmax: read-out: Cmax. The protocol:
ICR mice weighing 18-22 g were randomized into groups of 9 after 3-5 days of acclimatization, and then intragastrically given the test compound solution at a dose of 10 mg/kg and intravenously injected with the test compound solution at a dose of 1 mg/kg.
Blood sampling time points for the intragastrical administration group were 15 min, 0.5 h, 1 h, 2 h, 3 h, 4 h, 6 h, 8 h, 10 h, and 24 h, and blood sampling time points for the intravenous injection administration group were […], 15 min, 0.5 h, 1 h, 2 h, 4 h, 6 h, 8 h, 10 h, and 24 h; blood was collected from the orbit to prepare plasma samples to be tested. 30 μL of each of the plasma samples to be tested and a standard curve sample were taken, and an acetonitrile solution containing an internal standard was added. Supernatants were obtained by protein precipitation, diluted, and then assayed by LC/MS/MS. Pharmacokinetic parameters were fitted using a non-compartmental model (see Table 6).

The test system of a further data set is VCaP cells. Nature of the data set: Assay on inhibitory activity for VCaP cell proliferation (CCK-8). In kind it is cell-based. Particulars: Homo sapiens, 168 h incubation. An outline of the steps: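 VCaP cells seeded at 1×10^5 cells/mL in phenol red-free DMEM with 5% charcoal-stripped FBS, treated in duplicate at 10000–0.61 nM final. After 168 h incubation, viability was read with CCK-8.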

A further data set has as its target T2, AR in VCaP cells (Homo sapiens, UniProt P10275).
T2 construct: Assay on Degradation Activity for AR in VCaP Cells; endogenous in cells; host or cells: VCaP cells
T2 sequence (P10275 1-920): T1 sequence (P10275 1-920 T878A) with A878T
Nature of the data set: Assay on degradation activity for AR in VCaP cells (HTRF human androgen receptor detection kit). In kind it is cell-based. The following applies: 24 h incubation. As for the experimental part:
The detection was carried out using the HTRF HUMAN ANDROGEN RECEPTOR DETECTION KIT (cisbio, 64ANDRPEG), 4× Supplemented Lysis buffer was prepared using the Blocking reagent stock solution (100×) and Lysis buffer stock solution (4×), and 1× Supplemented Lysis buffer was prepared using the 4× Supplemented Lysis buffer and ddH2O. Premixed antibody solutions were prepared using Detection buffer, Androgen Receptor Eu Cryptate antibody, and Androgen Receptor d2 antibody.
VCaP cells in a good growth state were taken, washed with PBS, digested with pancreatin, and added with 2% CSS—FBS phenol red-free DMEM complete medium to terminate the digestion. The cells were collected by using a centrifuge tube, adjusted to a cell density of 1×10^6 cells/mL, and seeded in a 96-well plate (100 µL/well). The cells were incubated overnight in a cell incubator. Compounds were added using a nanoliter pipettor such that the final concentrations of the compounds were 1000 nM-0.977 nM. Two duplicate wells were set for each concentration, and meanwhile, a control was set. After another 24 h of incubation in the cell incubator, the medium was pipetted out, the 1× Supplemented Lysis buffer was added at 40 μL/well to lyse the cells. After the cells were oscillated for 40 min at room temperature, 16 μL of the cell lysate was added to a 384-well plate, the Premixed antibody solutions were added at 4 μL/well, and the mixture was left to stand at 25° C. for 2 h. Fluorescence values were detected at 665 nm/620 nm using an Envision microplate reader, the four-parameter analysis was performed, the dose-response curves were fit, and DC50 (the concentration of the drug when the degradation rate reaches 50%) and Dmax (the maximum degradation rate) were calculated.

[2] abbreviates: po, 10 mg/kg, Mouse i.g. 10 mpk.

Turning to `N#Cc1ccc(O[C@H]2CC[C@H](NC(=O)c3ccc(N4CCC5(CC4)CN(C4Cc6ccc7c(C8CCC(=O)NC8=O)noc7c6C4)C5)nn3)CC2)cc1Cl` (single isomer, unassigned) [Compound 24], the “Human liver microsome Residuals at 60 min (%)” value in data set [1] is above 85%. Moreover, the IC50 (in general, the midpoint of a concentration-inhibition curve) in the data set with LNCaP cells (Homo sapiens) is below 1000 nM.

On to `N#Cc1ccc(O[C@H]2CC[C@H](NC(=O)c3ccc(N4CCC5(CC4)CN(C4Cc6ccc7c(C8CCC(=O)NC8=O)noc7c6C4)C5)nn3)CC2)cc1Cl` (single isomer, unassigned) [Compound 25], for which, in data set [1], the “Human liver microsome Residuals at 60 min (%)” value was above 85%. Also, the IC50 in the data set on LNCaP cells was below 1000 nM.

As for `N#Cc1ccc(O[C@H]2CC[C@H](NC(=O)c3ccc(N4CCC(CN5CCc6ccc7c(C8CCC(=O)NC8=O)noc7c6C5)CC4)nn3)CC2)cc1Cl` (stereo partly drawn) [Compound 18], the “Human liver microsome Residuals at 60 min (%)” value in data set [1] is reported as above 85%. Besides, on AR in LNCaP cells, the DC50 – broadly, the concentration giving 50% degradation – was at most 20 nM and the Dmax (as a rule, the largest share of the target that was removed) is above 80%. For the same molecule, the IC50 with LNCaP cells (Homo sapiens) is below 1000 nM. For the same molecule, in the data set “Mouse pharmacokinetics” (iv, 1 mg/kg, Mouse i.v. 1 mpk), the clearance (in general, a measure of how efficiently the substance is removed, as volume per time) was 2.7 mL/min/kg and the AUC – broadly, concentration integrated over time – was determined as 5930 ng·h/mL. For the same molecule, in “Mouse pharmacokinetics” (setting [2]), the half-life – broadly, the time needed for the level to fall by half in the phase considered – is 331 min; the AUC worked out at 18400 ng·h/mL; the Cmax (in general, the maximum level reached in the sampled fluid or tissue) is 1200 ng/mL. In “Mouse pharmacokinetics” (po, 10 mg/kg), the bioavailability (commonly dose-corrected exposure relative to a reference, in per cent) was 31%.

As to `N#Cc1ccc(O[C@H]2CC[C@H](NC(=O)c3ccc(N4CCC(CN5CC6(Cc7ccc8c(C9CCC(=O)NC9=O)noc8c7C6)C5)CC4)nn3)CC2)cc1Cl` (stereo partly drawn) [Compound 21], in data set [1], the “Human liver microsome Residuals at 60 min (%)” value is given as above 85%. This molecule also came in with an IC50 in the data set on LNCaP cells (Homo sapiens) below 1000 nM.

In the case of `N#Cc1ccc(O[C@H]2CC[C@H](NC(=O)c3ccc(N4CCC5(CC4)CC(CN4Cc6ccc7c(C8CCC(=O)NC8=O)noc7c6C4)C5)nn3)CC2)cc1Cl.O=C(O)/C=C\C(=O)O` (stereo partly drawn) [Compound 34], the “Human liver microsome Residuals at 60 min (%)” value in data set [1] is reported as above 85%. The figures for the half-inhibitory concentration (IC50) in the data set on VCaP cells and with LNCaP cells (Homo sapiens) were below 100 nM and below 1000 nM, respectively. The same molecule returned a Dmax on AR in LNCaP cells above 80%.

`N#Cc1ccc(O[C@H]2CC[C@H](NC(=O)c3ccc(C4CCN(CC5CN(c6cc7onc(C8CCC(=O)NC8=O)c7c7ccccc67)C5)CC4)nn3)CC2)cc1Cl` (stereo partly drawn) [Compound 47]: the “Human liver microsome Residuals at 60 min (%)” value in data set [1] was above 85%. The IC50 in the data set with VCaP cells is below 10 nM. On AR in LNCaP cells, this molecule came in with a DC50 of at most 20 nM and a Dmax above 80%.

For the molecule `N#Cc1ccc(O[C@H]2CC[C@H](NC(=O)c3ccc(N4CCC(N5CC(N6Cc7ccc8c(C9CCC(=O)NC9=O)noc8c7C6)C5)CC4)nn3)CC2)cc1Cl` (stereo partly drawn) [Compound 94], in data set [1], the “Human liver microsome Residuals at 60 min (%)” value is reported as above 85%. Also, the figures for the IC50 with VCaP cells and with LNCaP cells (Homo sapiens) were below 100 nM and below 1000 nM, respectively. Moreover, on AR in VCaP cells, the DC50 is at most 1 nM.

Regarding `CN(c1ccc(C#N)c(Cl)c1)[C@H]1CC[C@H](NC(=O)c2ccc(N3CCC(CN4CCc5c(ccc6c(C7CCC(=O)NC7=O)noc56)C4)CC3)nn2)CC1` (stereo partly drawn) [Compound 118], the values for the IC50 in the data set on VCaP cells and in the data set with LNCaP cells (Homo sapiens) were below 100 nM and below 1000 nM, respectively. For the same molecule, the results for the DC50 at AR in VCaP cells and on AR in LNCaP cells were at most 1 nM and at most 20 nM, respectively. For the same molecule, the Dmax at AR in LNCaP cells was above 80%.

Take `N#Cc1ccc(O[C@H]2CC[C@H](NC(=O)c3cnc(N4CCC(CN5Cc6ccc7c(C8CCC(=O)NC8=O)noc7c6C5)CC4)nc3)CC2)cc1Cl` (stereo partly drawn) [Compound 119]: the “Human liver microsome Residuals at 60 min (%)” value in data set [1] is above 85%. The molecule further returned an IC50 in the data set with VCaP cells (VCaP, 168 h) below 100 nM. For the same molecule, the IC50 in the data set on LNCaP cells (Homo sapiens) was below 1000 nM. Besides, in the data set “Mouse pharmacokinetics” (iv, 1 mg/kg, Mouse i.v. 1 mpk), the clearance was 5.8 mL/min/kg, the half-life is 690 min and the AUC came out at 2720 ng·h/mL. Also, in “Mouse pharmacokinetics” (setting [2]), the half-life is 516 min, the AUC worked out at 10600 ng·h/mL and the Cmax was 559 ng/mL. Further, the bioavailability in the data set “Mouse pharmacokinetics” (po, 10 mg/kg) was found to be 39%.

As for `N#Cc1ccc(O[C@H]2CC[C@H](NC(=O)c3cnc(N4CCC(CN5CCc6c(ccc7c(C8CCC(=O)NC8=O)noc67)C5)CC4)cn3)CC2)cc1Cl` (stereo partly drawn) [Compound 145], the IC50 in the data set on VCaP cells is below 100 nM; with LNCaP cells (Homo sapiens), below 1000 nM. Besides, the DC50 is at most 1 nM at AR in VCaP cells and at most 20 nM on AR in LNCaP cells. Also, at AR in LNCaP cells, the Dmax is above 80%.
